Data reported in ChEMBL document CHEMBL2390831, “Steviol glycosides: chemical diversity, metabolism, and function” (J Nat Prod, 2013).
pIC50: −log10 of the molar value.

Experiment: Antioxidant activity assessed as hydroxyl radical scavenging activity
Format: functional

Compound	pIC50
O=c1c(O)c(-c2ccc(O)c(O)c2)oc2cc(O)cc(O)c12 [QUERCETIN]	3.96
C=C1C[C@@]23CC[C@H]4[C@@](C)(CCC[C@@]4(C)C(=O)O[C@@H]4O[C@H](CO)[C@@H](O)[C@H](O)[C@H]4O)[C@@H]2CC[C@]1(O[C@@H]1O[C@H](CO)[C@@H](O)[C@H](O)[C@H]1O[C@@H]1O[C@H](CO)[C@@H](O)[C@H](O)[C@H]1O)C3 [STEVIOSIDE]	2.82
